The source of these data is PMC6413121, “Antiplasmodial and Cytotoxic Cytochalasins from an Endophytic Fungus, Nemania sp. UM10M, Isolated from a Diseased Torreya taxifolia Leaf” (Molecules, 2019).

Read-outs that look alike come from different tables or passages of the source.

Data set [1] relates to P. falciparum W2 (chloroquine resistant) strain. The data set can be described thus: microbe, parasite or virus in culture. Type of data set: cell-based, Plasmodium falciparum. The settings on record: for Chloroquine-Resistant (W2)-Strain S. I.: selectivity index = IC50 for cytotoxicity (Vero)/IC50 for antiplasmodial activity; for IC50: Plasmodium falciparum.
In data set [2] the test system is P. falciparum D6 (chloroquine sensitive) strain. The data set can be described thus: microbe, parasite or virus in culture. Type of data set: cell-based, Plasmodium falciparum. Conditions: for Chloroquine-Sensitive (D6)-Strain S. I.: selectivity index = IC50 for cytotoxicity (Vero)/IC50 for antiplasmodial activity; for IC50: Plasmodium falciparum.
The subject of data set [3] is Vero cells (mammalian kidney fibroblasts). Put plainly: in vitro. Type of data set: cell-based. Conditions: highest concentration tested […].
Data set [4] relates to P. berghei (NK-65 strain). The data set can be described thus: In vivo antimalarial assay in mice infected with P. berghei. Also noted: species or system mice (Swiss Webster). Conditions: for Day of Death (post infection): one value per animal; for % Parasitemia Suppression Day 5 / % Parasitemia Suppression Day 7: vehicle control = 100% parasitemia, < 80% non-significant. The method, then:
The protocol for in vivo antimalarial evaluation was approved by the University of Mississippi Institutional Animal Care and Use Committee (IACUC). The in vivo antimalarial activity was determined in mice infected with P. berghei (NK-65 strain). Male mice (Swiss Webster strain) weighing 18-20 g were intraperitoneally inoculated with 2 × 10^7 parasitized red blood cells obtained from a highly infected donor mouse. Mice were divided into different groups with five mice in each group. Compound stocks were prepared in DMSO and administered orally to the mice through gavage two hours after the infection (day 0). The animals were treated once daily for consecutive days (day 0 to 2) and were closely observed for at least 2 h after every dose for any apparent signs of toxicity. Blood smears were prepared on different days starting from 5 days post infection (through 28 days) by clipping the tail end, stained with Giemsa, and the slides were observed under microscope for determination of parasitemia. Mice without parasitemia through day 28 postinfection were considered as cured. Also, suppression in development of parasitemia was computed by comparing the parasitemia in the control vehicle treated group and groups treated with compound. The mean survival time was also computed for control and treated groups. The results are presented as parasitemia suppression of day 5 post treatment, mean survival time of mice in each group, cure and survival graphs computed by Prism 6.0. (San Diego, CA, USA).

Data set [5] in a line: in vitro. Conditions: human, concentration causing 50% growth inhibition. It counts as cell-based, human. On the procedure:
(§1) In vitro cytotoxicity was determined against a panel of mammalian cells that included kidney fibroblast (Vero), kidney epithelial (LLC-PK11), malignant melanoma (SK-MEL), oral epidermal carcinoma (KB), breast ductal carcinoma (BT-549), and ovary carcinoma (SK-OV-3) cells Doxorubicin was used as a positive control.

Data set [6] has as its system bentgrass (Agrostis stolonifera). Put plainly: In vitro phytotoxicity assay, bentgrass. The settings on record: 1 mg/mL; 10% acetone; scale of 0 to 5, 0 = no effect, 5 = no growth. On the procedure: (§2) Herbicidal or phytotoxic activity of the extract and compounds was performed according to the published procedure using bentgrass (Agrostis stolonifera) and lettuce (Lactuca sativa cv. L., Iceberg), in 24-well plates. Phytotoxicity was ranked visually. The ranking of phytotoxic activity was based on a scale of 0 to 5 with 0 showing no effect and 5 no growth.

For data set [7], the system named is lettuce (Lactuca sativa cv. L., Iceberg). The data set can be described thus: In vitro phytotoxicity assay, lettuce. The settings on record: 1 mg/mL; 10% acetone; scale of 0 to 5, 0 = no effect, 5 = no growth. On the procedure: as §2
Data set [8] in a line: in vitro. It counts as cell-based. The settings on record: African green monkey.
Data set [9] in a line: in vitro. Conditions: pig; concentration causing 50% growth inhibition; read-out: Cytotoxic activity IC50, LLC-PK11. It counts as cell-based, pig. The method, then: as §1
The conditions of data set [10]: intraperitoneal, subcutaneous, or intravenous injections up to 100 mg/kg/day; cited from earlier work.
Data set [11] concerns KB (human epidermal carcinoma). The data set can be described thus: in vitro. It counts as cell-based. The settings on record: concentration causing 50% growth inhibition; read-out: Cytotoxic activity IC50, KB. On the procedure: as §1
Data set [12] deals with BT-549 (human breast carcinoma, ductal). The data set can be described thus: in vitro. Conditions: concentration causing 50% growth inhibition; read-out: Cytotoxic activity IC50, BT-549. It counts as cell-based. On the procedure:
as §1

The subject of data set [13] is SK-OV-3 (human ovary carcinoma). Put plainly: in vitro. It counts as cell-based. The settings on record: concentration causing 50% growth inhibition; read-out: Cytotoxic activity IC50, SK-OV-3. On the procedure:
as §1

The subject of data set [14] is SK-MEL (human malignant melanoma). Put plainly: in vitro. It counts as cell-based. The settings on record: concentration causing 50% growth inhibition; read-out: Cytotoxic activity IC50, SK-MEL. On the procedure:
as §1

Data set [15] relates to LLC-PK11 (pig kidney epithelial). The data set can be described thus: in vitro. The settings on record: concentration causing 50% growth inhibition; read-out: Cytotoxic activity IC50, LLC-PK11. Type of data set: cell-based. On the procedure: as §1
Setting [16] is: W2, read-out: Chloroquine-Resistant (W2)-Strain IC50.
Setting [17] is: W2, read-out: Chloroquine-Resistant (W2)-Strain IC50 (ng/mL).
Setting [18] is: PO, 100 mg/kg × 3 days, P. berghei.
Setting [19] is: read-out: Cytotoxic activity IC50, BT-549.
[20] abbreviates: read-out: Cytotoxic activity IC50, KB.
[21] abbreviates: read-out: Cytotoxic activity IC50, SK-MEL.
The mark [22] stands for this setting: read-out: Cytotoxic activity IC50, SK-OV-3.
Where [23] appears, read: P. falciparum D6, read-out: Chloroquine-Sensitive (D6)-Strain IC50.
Where [24] appears, read: P. falciparum D6, read-out: Chloroquine-Sensitive (D6)-Strain IC50 (ng/mL).
Where [25] appears, read: highest concentration tested […], read-out: Cytotoxicity to Vero Cells IC50.
Setting [26] is: read-out: Cytotoxicity to Vero cells.

For `C[C@@H]1CC[C@H]2[C@@H](C)C(=O)O[C@@H]3O[C@@]4(C)CC[C@@H]1[C@]32OO4` [Artemisinin, reference compound], the “Chloroquine-Resistant (W2)-Strain S. I.” value in data set [1] was more than 1586.6. Further, in [2], the “Chloroquine-Sensitive (D6)-Strain S. I.” value is listed as more than 850. The “Cytotoxicity to Vero Cells IC50” value in [3] is listed as “NC (not cytotoxic at the highest concentration tested (4760 ng/mL))”.
As to `CCN(CC)CCCC(C)Nc1ccnc2cc(Cl)ccc12` (stereo not drawn) [Chloroquine, reference compound], the IC50 in [1] (setting [16]) is 0.31 µM. Further, the IC50 in [1] (setting [17]) worked out at 160 ng/mL. The IC50 in [2] (D6, read-out: Chloroquine-Sensitive (D6)-Strain IC50) was found to be 0.03 µM. Also, the IC50 in data set [2] (D6, read-out: Chloroquine-Sensitive (D6)-Strain IC50 (ng/mL)) turned out to be 16 ng/mL. Moreover, in [4] (setting [18]), the “Cure (mice without parasitemia till day 28 post-infection)” value is given as 2/5, the “MST (mean survival time)” value was found to be 28 days, the “Survival (animals that survived day 28/total animals in group)” value was 5/5 and the “Day of Death (post infection)” value is recorded as 28/28/28/28/28. Moreover, in data set [4] (setting [18]), the “% Parasitemia Suppression Day 5” value was 100% and the “% Parasitemia Suppression Day 7” value is listed as 100%. The “Cytotoxicity to Vero Cells IC50” value in data set [3] is given as “NC (not cytotoxic at the highest concentration tested (4760 ng/mL))”.
In the case of `CC(=O)OC1C2OC2C(C)(O)C(=O)C(C)CC=CC2C(O)C(C)=C(C)C3C(Cc4ccccc4)NC(=O)C213` [Compound 1, (3S,4R,7S,8S,9R,16S,18R,19R,20S,21S)-19,20-epoxycytochalasin C], the IC50 in “in vitro [5]” (setting [19]) was more than 10 µM; in “in vitro [5]” (setting [20]), more than 10 µM; in “in vitro [5]” (setting [21]), 8.02 µM; in the data set “in vitro [5]” (setting [22]), more than 10 µM; in [1] (setting [16]), 0.05 µM; in data set [1] (setting [17]), 28 ng/mL. The IC50 in data set [2] (setting [23]) was 0.07 µM; in data set [2] (setting [24]), 37 ng/mL; in “in vitro [8]” (setting [25]) it was more than 4.76 mg/L; in the data set “in vitro [8]” (setting [26]), more than 4.76 mg/L; in “in vitro [9]” it was more than 10 µM. In [1], the “Chloroquine-Resistant (W2)-Strain S. I.” value was more than 170. Besides, the “Phytotoxic activity, Bentgrass (ranking)” value in data set [6] was determined as 2. Further, the “Phytotoxic activity, Lettuce (ranking)” value in data set [7] is on record as 3. The “Chloroquine-Sensitive (D6)-Strain S. I.” value in data set [2] was more than 128.6. Also, the “MST (mean survival time)” value in data set [4] (setting [18]) is given as 5.2 days. Moreover, the “Survival (animals that survived day 28/total animals in group)” value in [4] (setting [18]) is given as 0/5. For the same compound, the “Day of Death (post infection)” value in [4] (setting [18]) is 17/5/3/1/0. For the same compound, the “% Parasitemia Suppression Day 5” value in [4] (setting [18]) is recorded as 33.9%. Also, the “% Parasitemia Suppression Day 7” value in data set [4] (setting [18]) came out at 71.4%. In addition, in data set [4] (oral, 100 mg/kg/day for 3 days), the “Animals that died due to drug induced toxicity” value was “Three out of 5”.
For the compound `C=C1C(C)C2C(Cc3ccccc3)NC(=O)C23C(C=CCC(C)C(=O)C(C)(O)C2OC2C3OC(C)=O)C1O` [Compound 2, (3S,4R,5S,7S,8S,9R,16S,18R,19R,20S,21S)-19,20-epoxycytochalasin D], the IC50 is 7.84 µM in the data set “in vitro [5]” (setting [19]); more than 10 µM in “in vitro [5]” (setting [20]); more than 10 µM in the data set “in vitro [5]” (setting [21]); more than 10 µM in “in vitro [5]” (setting [22]); 0.04 µM in [1] (setting [16]); 20 ng/mL in data set [1] (setting [17]). The IC50 in data set [2] (setting [23]) was 0.04 µM; in data set [2] (setting [24]), 22 ng/mL; in “in vitro [8]” (setting [25]), more than 4.76 mg/L; in “in vitro [8]” (setting [26]), more than 4.76 mg/L; in “in vitro [9]”, 8.4 µM. Moreover, in [1], the “Chloroquine-Resistant (W2)-Strain S. I.” value was more than 238. In addition, in [6], the “Phytotoxic activity, Bentgrass (ranking)” value is given as 3. Besides, in [7], the “Phytotoxic activity, Lettuce (ranking)” value is reported as 3. In addition, the “Chloroquine-Sensitive (D6)-Strain S. I.” value in [2] is recorded as more than 216.3.
Turning to `CC(=O)OC1C2OC2C(C)C(=O)C(C)CC=CC2C(O)C(C)=C(C)C3C(Cc4ccccc4)NC(=O)C213` [Compound 3, (3S,4R,7S,8S,9R,16(S),18S,19S,20R,21S)-18-deoxy-19,20-epoxycytochalasin C], the IC50 in “in vitro [5]” (setting [19]) is 6.89 µM; in the data set “in vitro [5]” (setting [20]), more than 10 µM; in “in vitro [5]” (setting [21]), more than 10 µM; in the data set “in vitro [5]” (setting [22]) it was more than 10 µM; in data set [1] (setting [16]) it was 0.19 µM; in data set [1] (setting [17]) it was 100 ng/mL. The IC50 in data set [2] (setting [23]) is 0.56 µM; in [2] (setting [24]) it was 280 ng/mL; in “in vitro [8]” (setting [25]), more than 4.76 mg/L; in the data set “in vitro [9]” it was more than 10 µM. Also, in data set [1], the “Chloroquine-Resistant (W2)-Strain S. I.” value is listed as more than 47.6. In [6], the “Phytotoxic activity, Bentgrass (ranking)” value is listed as 4. In data set [7], the “Phytotoxic activity, Lettuce (ranking)” value came out at 3. For the same compound, in [2], the “Chloroquine-Sensitive (D6)-Strain S. I.” value is on record as more than 17.
Consider `C=C1[C@@H](C)[C@H]2[C@H](Cc3ccccc3)NC(=O)[C@]23OC(=O)/C=C/[C@H](O)CCC[C@@H](C)C/C=C/[C@H]3[C@@H]1O` [Cytochalasin B], for which, in data set [10], the “Toxicity in animal models at therapeutic doses” value (“Toxicity in animal models” for short) is “no toxicity”.
With `C=C1[C@@H](C)[C@H]2[C@H](Cc3ccccc3)NC(=O)[C@]23[C@H](OC(C)=O)/C=C/[C@@](C)(O)C(=O)[C@@H](C)C/C=C/[C@H]3[C@@H]1O` [Cytochalasin D], the “Toxicity in animal models” value in [10] is recorded as “no toxicity”.
As to `C[C@H]1C/C=C/[C@H]2[C@@H]3O[C@]3(C)[C@@H](C)[C@H]3[C@H](Cc4ccccc4)NC(=O)[C@]32OC(=O)O/C=C/[C@@](C)(O)C1=O` [Cytochalasin E], in data set [10], the “Toxicity in animal models” value was “no toxicity”.
Turning to `COc1cccc2c1C(=O)c1c(O)c3c(c(O)c1C2=O)C[C@@](O)(C(=O)CO)C[C@@H]3O[C@H]1C[C@H](N)[C@H](O)[C@H](C)O1` [Doxorubicin, reference compound], the IC50 was 2.12 µM in data set [11]; 1.83 µM in [12]; 1.47 µM in [13]; 1.29 µM in [14]; 1.28 µM in data set [15].
